According to PubChem BioAssay (NCI):
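96-well plates; 48 h exposure; 5 concentrations. Endpoints by linear interpolation between flanking doses. Not reached: highest tested concentration assigned. TGI denotes the concentration required for complete inhibition of growth.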

Assays:
Assay in all cases: NCI-60 cell line screen, 48 h
786-0 renal = system: 786-0 renal
A498 renal = system: A498 renal
A549 NSCLC = system: A549 NSCLC
ACHN renal = system: ACHN renal
BT-549 breast = system: BT-549 breast
CAKI-1 renal = system: CAKI-1 renal
CCRF-CEM leukemia = system: CCRF-CEM leukemia
COLO 205 colon = system: COLO 205 colon
DU-145 prostate = system: DU-145 prostate
HCC-2998 colon = system: HCC-2998 colon
HCT-116 colon = system: HCT-116 colon
HCT-15 colon = system: HCT-15 colon
HL-60(TB) leukemia = system: HL-60(TB) leukemia
HOP-62 NSCLC = system: HOP-62 NSCLC
HOP-92 NSCLC = system: HOP-92 NSCLC
HS 578T breast = system: HS 578T breast
HT29 colon = system: HT29 colon
IGROV1 ovarian = system: IGROV1 ovarian
K-562 leukemia = system: K-562 leukemia
KM12 colon = system: KM12 colon
LOX IMVI melanoma = system: LOX IMVI melanoma
M14 melanoma = system: M14 melanoma
MALME-3M melanoma = system: MALME-3M melanoma
MCF7 breast = system: MCF7 breast
MDA-MB-231 breast = system: MDA-MB-231 breast
MDA-MB-435 = system: MDA-MB-435
MDA-N = system: MDA-N
NCI-H226 lung = system: NCI-H226 lung
NCI-H23 lung = system: NCI-H23 lung
NCI-H460 lung = system: NCI-H460 lung
NCI-H522 lung = system: NCI-H522 lung
NCI/ADR-RES ovarian = system: NCI/ADR-RES ovarian
OVCAR-3 ovarian = system: OVCAR-3 ovarian
OVCAR-4 ovarian = system: OVCAR-4 ovarian
OVCAR-5 ovarian = system: OVCAR-5 ovarian
OVCAR-8 ovarian = system: OVCAR-8 ovarian
PC-3 prostate = system: PC-3 prostate
RPMI-8226 leukemia = system: RPMI-8226 leukemia
RXF 393 renal = system: RXF 393 renal
SF-268 CNS = system: SF-268 CNS
SF-295 CNS = system: SF-295 CNS
SF-539 CNS = system: SF-539 CNS
SK-MEL-2 melanoma = system: SK-MEL-2 melanoma
SK-MEL-28 melanoma = system: SK-MEL-28 melanoma
SK-MEL-5 melanoma = system: SK-MEL-5 melanoma
SK-OV-3 ovarian = system: SK-OV-3 ovarian
SN12C renal = system: SN12C renal
SNB-19 CNS = system: SNB-19 CNS
SNB-75 CNS = system: SNB-75 CNS
SR leukemia = system: SR leukemia
SW-620 colon = system: SW-620 colon
T-47D breast = system: T-47D breast
TK-10 renal = system: TK-10 renal
U251 CNS = system: U251 CNS
UACC-257 melanoma = system: UACC-257 melanoma
UACC-62 melanoma = system: UACC-62 melanoma
UO-31 renal = system: UO-31 renal
EKVX NSCLC = system: EKVX NSCLC
MOLT-4 leukemia = system: MOLT-4 leukemia

With COC1=C(Br)C(O)C2(C=C1Br)CC(C(=O)NCCCCNC(=O)C1=NOC3(C=C(Br)C(OC)=C(Br)C3O)C1)=NO2 (stereo not given) the TGI (786-0 renal) was greater than 100 µM, the TGI (A498 renal) was greater than 100 µM and the TGI (A549 NSCLC) was greater than 100 µM. It also gave a TGI (ACHN renal) of 75.1 µM, a TGI (BT-549 breast) greater than 100 µM and a TGI (CAKI-1 renal) greater than 100 µM. It also gave a TGI (CCRF-CEM leukemia) of 40.3 µM, a TGI (COLO 205 colon) of 30.9 µM and a TGI (DU-145 prostate) greater than 100 µM. It also gave a TGI (HCC-2998 colon) greater than 100 µM, a TGI (HCT-116 colon) of 49.3 µM and a TGI (HCT-15 colon) greater than 100 µM. The TGI (HL-60(TB) leukemia) was 47.4 µM, the TGI (HOP-62 NSCLC) was 79 µM and the TGI (HOP-92 NSCLC) was 94.9 µM. The TGI (HS 578T breast) was 46.9 µM, the TGI (HT29 colon) was 38.8 µM and the TGI (IGROV1 ovarian) was 46.8 µM. For the same compound, the TGI (K-562 leukemia) was 55.4 µM, the TGI (KM12 colon) was 27.3 µM and the TGI (LOX IMVI melanoma) was 35.1 µM. The TGI (M14 melanoma) was 37 µM, the TGI (MALME-3M melanoma) was 45.5 µM and the TGI (MCF7 breast) was 87.4 µM. For the same compound, the TGI (MDA-MB-231 breast) was 66.6 µM, the TGI (MDA-MB-435) was 49.8 µM and the TGI (MDA-N) was 39.7 µM. The TGI (NCI-H226 lung) was 41.2 µM, the TGI (NCI-H23 lung) was greater than 100 µM and the TGI (NCI-H460 lung) was greater than 100 µM. It also gave a TGI (NCI-H522 lung) of 29.8 µM, a TGI (NCI/ADR-RES ovarian) greater than 100 µM and a TGI (OVCAR-3 ovarian) of 39.4 µM. The TGI (OVCAR-4 ovarian) was greater than 100 µM, the TGI (OVCAR-5 ovarian) was greater than 100 µM and the TGI (OVCAR-8 ovarian) was greater than 100 µM. It also gave a TGI (PC-3 prostate) of 62.8 µM, a TGI (RPMI-8226 leukemia) of 50.5 µM and a TGI (RXF 393 renal) of 69.6 µM. For the same compound, the TGI (SF-268 CNS) was 45.1 µM, the TGI (SF-295 CNS) was 90.5 µM and the TGI (SF-539 CNS) was 50.3 µM. It also gave a TGI (SK-MEL-2 melanoma) of 52.8 µM, a TGI (SK-MEL-28 melanoma) greater than 100 µM and a TGI (SK-MEL-5 melanoma) of 36.6 µM. For the same compound, the TGI (SK-OV-3 ovarian) was greater than 100 µM, the TGI (SN12C renal) was greater than 100 µM and the TGI (SNB-19 CNS) was greater than 100 µM. For the same compound, the TGI (SNB-75 CNS) was 61.2 µM, the TGI (SR leukemia) was 38.9 µM and the TGI (SW-620 colon) was greater than 100 µM. The TGI (T-47D breast) was 62.9 µM, the TGI (TK-10 renal) was greater than 100 µM and the TGI (U251 CNS) was greater than 100 µM. For the same compound, the TGI (UACC-257 melanoma) was 52.8 µM, the TGI (UACC-62 melanoma) was greater than 100 µM and the TGI (UO-31 renal) was greater than 100 µM.
COc1ccc(CNC(C)C(=O)O)cc1 (stereo not given) gave a TGI (786-0 renal) greater than 100 µM, a TGI (A498 renal) greater than 100 µM and a TGI (A549 NSCLC) greater than 100 µM. For the same compound, the TGI (ACHN renal) was greater than 100 µM, the TGI (BT-549 breast) was greater than 100 µM and the TGI (CAKI-1 renal) was greater than 100 µM. For the same compound, the TGI (CCRF-CEM leukemia) was 65.5 µM, the TGI (COLO 205 colon) was greater than 100 µM and the TGI (DU-145 prostate) was greater than 100 µM. The TGI (EKVX NSCLC) was greater than 100 µM, the TGI (HCT-116 colon) was greater than 100 µM and the TGI (HCT-15 colon) was greater than 100 µM. The TGI (HL-60(TB) leukemia) was greater than 100 µM, the TGI (HOP-62 NSCLC) was greater than 100 µM and the TGI (HOP-92 NSCLC) was greater than 100 µM. For the same compound, the TGI (HS 578T breast) was greater than 100 µM, the TGI (HT29 colon) was greater than 100 µM and the TGI (IGROV1 ovarian) was greater than 100 µM. For the same compound, the TGI (K-562 leukemia) was greater than 100 µM, the TGI (KM12 colon) was greater than 100 µM and the TGI (LOX IMVI melanoma) was greater than 100 µM. The TGI (M14 melanoma) was greater than 100 µM, the TGI (MALME-3M melanoma) was greater than 100 µM and the TGI (MCF7 breast) was greater than 100 µM. It also gave a TGI (MDA-MB-231 breast) greater than 100 µM, a TGI (MDA-MB-435) greater than 100 µM and a TGI (MDA-N) greater than 100 µM. It also gave a TGI (MOLT-4 leukemia) greater than 100 µM, a TGI (NCI-H226 lung) greater than 100 µM and a TGI (NCI-H23 lung) greater than 100 µM. For the same compound, the TGI (NCI-H460 lung) was greater than 100 µM, the TGI (NCI-H522 lung) was greater than 100 µM and the TGI (NCI/ADR-RES ovarian) was greater than 100 µM. The TGI (OVCAR-3 ovarian) was greater than 100 µM, the TGI (OVCAR-4 ovarian) was greater than 100 µM and the TGI (OVCAR-5 ovarian) was greater than 100 µM. The TGI (OVCAR-8 ovarian) was greater than 100 µM, the TGI (PC-3 prostate) was greater than 100 µM and the TGI (RPMI-8226 leukemia) was greater than 100 µM. It also gave a TGI (RXF 393 renal) greater than 100 µM, a TGI (SF-268 CNS) greater than 100 µM and a TGI (SF-295 CNS) greater than 100 µM. The TGI (SF-539 CNS) was greater than 100 µM, the TGI (SK-MEL-2 melanoma) was greater than 100 µM and the TGI (SK-MEL-28 melanoma) was greater than 100 µM. For the same compound, the TGI (SK-MEL-5 melanoma) was greater than 100 µM, the TGI (SK-OV-3 ovarian) was greater than 100 µM and the TGI (SN12C renal) was greater than 100 µM. It also gave a TGI (SNB-19 CNS) greater than 100 µM, a TGI (SNB-75 CNS) greater than 100 µM and a TGI (SR leukemia) greater than 100 µM. The TGI (SW-620 colon) was greater than 100 µM, the TGI (T-47D breast) was greater than 100 µM and the TGI (TK-10 renal) was greater than 100 µM. The TGI (U251 CNS) was greater than 100 µM, the TGI (UACC-257 melanoma) was greater than 100 µM and the TGI (UACC-62 melanoma) was greater than 100 µM. For the same compound, the TGI (UO-31 renal) was greater than 100 µM.
